Consider two compounds from US7718693B2, “Receptor antagonists and their methods of use” (Glaxo Group Limited, priority 2006, dated 2010).

Type in all cases: in vivo
Test [1] relates to Random Hooded rats. Nature of the test: Rat Model of Acute Inflammatory Pain (intraplantar FCA, weight bearing). The note with it: oral; for reversal of FCA (i.pl)-induced difference in weight bearing compared to vehicle response: 24 hours after FCA injection; for ED50: FCA (i.pl) weight bearing, read-out: ED50 obtained from dose response curves. How it is done: Rat Model of Acute Inflammatory Pain
A useful animal model for acute inflammatory pain is the Freund's Complete Adjuvant (FCA)-induced inflammation model. A similar model using carrageenan rather than FCA is described by Clayton et al. in Br. J. Pharmacol. 1997; 120, 219P. Adult male Random Hooded rats (180-220 g) from Charles River, UK received an intraplantar (i.pl) injection of 100 μl of FCA into the plantar surface of the left hind paw. The ability to bear weight on each hindlimb (weight bearing g) was measured prior to and 24 hours after the FCA injection using a Dual Channel Weight Averager (Linton Instruments). After the post-FCA reading, rats were typically dosed orally with compound after which weight bearing measurements were recorded.

The test system of test [2] is Random Hooded rats. Nature of the test: Rat Model of Neuropathic Pain (sciatic nerve ligatures, Von Frey mechanical allodynia). The note with it: oral, twice daily for 8 days, 26-33 days post surgery. The source says: Rat Model of Neuropathic Pain
By placing loosely constrictive ligatures around the common sciatic nerve, a peripheral mononeuropathy can be produced, which thereby provides a rat model of neuropathic pain, Bennet et al., Pain, Vol. 33, pp 87-107 (1988). Adult male Random Hooded rats (180-200 g) from Charles River, UK were anaesthetised with isoflurane (3%). The sciatic nerve in the left leg was exposed at mid thigh level and 4 loose ligatures of Chromic 4.0 gut tied around the nerve as described by Bennet et al., Pain, Vol. 33, pp 87-107 (1988). The wound was closed and secured with staples. Sham rats underwent the same procedure but loose ligatures were not applied. The presence of mechanical (tactile) allodynia was assessed using manual application of Von Frey hair monofilaments. Monofilaments were applied in ascending order to the plantar region of the hind paw (range: 1.4 g-26 g). Each hair was applied for approx. 3-5 seconds until a paw withdrawal response was observed. After confirmation with reapplication of lower and/or higher hairs, the lowest hair to give a paw withdrawal was recorded as the threshold response (g). When stable allodynia was established rats were dosed orally 26-33 days post surgery with compound twice daily for 8 days with allodynia measurements recorded at least three times during the dosing period.

Test [3] has as its system Random Hooded rats. Nature of the test: Rat Model of Joint Pain (intra-articular FCA, weight bearing). The note with it: oral; for ED50: FCA (i.art) weight bearing, read-out: ED50 obtained from Area Under the Curve (AUC) calculations; for reversal of FCA (i.art)-induced difference in weight bearing compared to vehicle response: twice daily for 5 days, normally 13-17 days post surgery. How it is done:
By measuring hypersensitivity post intra-articular injection of FCA into the knee, the effectiveness of a potential analgesic in reversing FCA-induced hypersensitivity can be assessed in a joint pain model of chronic inflammatory pain. Adult male Random Hooded rats (150-180 g) from Charles River, UK were briefly anaesthetised with isoflurane (3%). Rats were then injected with 150 μl of Freund's complete adjuvant (FCA) into the left knee joint (intra-articularly, i.art). The ability to bear weight on each hindlimb (weight bearing, g) was measured prior to and following surgery using a Dual Channel Weight Averager (Linton Instruments). When a stable difference in weight bearing was established between the injected and contralateral paws, rats were typically dosed orally (normally 13-17 days post surgery) with compound twice daily for 5 days with weight bearing measurements recorded daily.

In the case of `CN1C(=O)CC[C@H]1C(=O)NCc1ccc(Cl)cc1Cl` [Example E10, N-[(2,4-dichlorophenyl)methyl]-1-methyl-5-oxo-prolinamide], in the test on Random Hooded rats [1], the “reversal of FCA (i.pl)-induced difference in weight bearing compared to vehicle response” value is recorded as “significantly reversed” and the ED50 is < 20 mg/kg. Besides, the “reversal of CCl-induced mechanical allodynia compared to vehicle response” value with Random Hooded rats [2] was “significantly reversed”. In addition, in the test with Random Hooded rats [3], the ED50 was < 20 mg/kg and the “reversal of FCA (i.art)-induced difference in weight bearing compared to vehicle response” value was “significantly reversed”.

With `CN1C(=O)CC[C@H]1C(=O)NCc1cccc(C(F)(F)F)c1Cl` [Example E51, N-{[2-chloro-3-(trifluoromethyl)phenyl]methyl}-1-methyl-5-oxoprolinamide], in the test on Random Hooded rats [1], the “reversal of FCA (i.pl)-induced difference in weight bearing compared to vehicle response” value is recorded as “significantly reversed” and the ED50 is < 20 mg/kg. Also, the “reversal of CCl-induced mechanical allodynia compared to vehicle response” value in the test on Random Hooded rats [2] is “significantly reversed”. In the test with Random Hooded rats [3], the ED50 was < 20 mg/kg and the “reversal of FCA (i.art)-induced difference in weight bearing compared to vehicle response” value is given as “significantly reversed”.
